Measurements published in patent EP4806891A1 (Kangbaida (Sichuan) Biotechnology Co., Ltd., priority 2023, dated 2025).

How the values were obtained:
HEK-Blue-hTLR8 cells = target: T1, HEK-Blue-hTLR8 cells (Homo sapiens, UniProt Q9NR97); experiment: HEK-Blue-hTLR8 cell inhibition assay; format: cell-based; conditions: R848 3 µM, 16 h, OD 620 nm, read-out: TLR8 IC50
T1 construct: expressed in transfected cells; host or cells: HEK-Blue-hTLR8 cells (HEK293-derived reporter line)
T1 sequence (Q9NR97 27-1041): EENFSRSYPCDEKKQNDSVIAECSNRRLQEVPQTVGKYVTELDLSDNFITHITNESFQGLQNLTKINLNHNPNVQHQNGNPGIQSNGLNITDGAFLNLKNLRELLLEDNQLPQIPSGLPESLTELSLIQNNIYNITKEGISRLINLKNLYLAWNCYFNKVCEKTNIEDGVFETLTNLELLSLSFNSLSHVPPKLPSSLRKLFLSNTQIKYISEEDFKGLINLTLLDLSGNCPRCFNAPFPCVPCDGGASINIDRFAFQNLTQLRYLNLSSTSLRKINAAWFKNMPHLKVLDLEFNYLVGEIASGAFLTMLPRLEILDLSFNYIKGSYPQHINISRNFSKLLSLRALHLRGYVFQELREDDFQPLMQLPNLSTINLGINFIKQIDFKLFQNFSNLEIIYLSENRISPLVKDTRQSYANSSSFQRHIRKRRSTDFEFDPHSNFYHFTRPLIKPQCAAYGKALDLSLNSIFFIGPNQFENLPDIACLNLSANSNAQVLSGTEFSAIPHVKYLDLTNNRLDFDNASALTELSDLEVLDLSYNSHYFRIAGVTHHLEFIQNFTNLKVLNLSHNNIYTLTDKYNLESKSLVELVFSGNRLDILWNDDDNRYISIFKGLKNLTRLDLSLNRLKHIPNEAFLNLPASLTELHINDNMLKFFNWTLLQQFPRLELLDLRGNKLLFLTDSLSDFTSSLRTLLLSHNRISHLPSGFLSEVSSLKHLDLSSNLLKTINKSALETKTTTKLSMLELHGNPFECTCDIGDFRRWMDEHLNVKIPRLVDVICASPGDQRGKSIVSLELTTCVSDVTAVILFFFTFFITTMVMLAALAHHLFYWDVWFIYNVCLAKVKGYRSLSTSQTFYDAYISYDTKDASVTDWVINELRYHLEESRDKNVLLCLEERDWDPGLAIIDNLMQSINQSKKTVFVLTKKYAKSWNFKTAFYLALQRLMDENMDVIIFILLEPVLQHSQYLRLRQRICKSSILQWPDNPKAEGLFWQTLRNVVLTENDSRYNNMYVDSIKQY
Procedure: (§1) HEK-Blue-hTLR7/8/9 cell inhibition assay
(§2) 1. HEK-Blue-hTLR7/8 cells (1 × 10^4 cells/well) and HEK-Blue-hTLR9 cells (1.5 × 10^4 cells/well) were seeded in a 384-well cell culture plate, with a volume of 30 µL per well. The plate was incubated at 37°C in a 5% CO2 incubator for 4 h. 2. The compound was prepared with DMSO and diluted in DMEM medium to 10 concentrations (1:3 dilution), with final concentrations of 10000, 3333.3, 1111.1, 370.4, 123.5, 41.2, 13.7, 4.6, 1.5, and 0.5 nM; R848 was prepared with DMSO and diluted in DMEM medium, with final concentrations of 0.8 µM (HEK-Blue-hTLR7) and 3 µM (HEK-Blue-hTLR8); ODN2006 was prepared with endotoxin-free water and diluted in DMEM medium, with a final concentration of 1 µM. 3. Cells treated with DMSO were used as the blank control group, while cells treated solely with Resiquimod (R848) were used as the positive control group for HEK-Blue-hTLR7/8, and cells treated solely with ODN2006 were used as the positive control group for HEK-Blue-hTLR9. Cells treated with the test compound together with R848 or ODN2006 were used as the test group. Two parallel wells were set for each group and were placed at 37°C in a 5% CO2 incubator for incubation. 4. After being incubated for 4 h, the 384-well plate of HEK-Blue-hTLR7/8 was taken out from the incubator, and R848 alone or both R848 and the diluted compound were separately added into each well. The plate was placed at 37°C in a 5% CO2 incubator for incubation for 16 h; the 384-well plate of HEK-Blue-hTLR9 was taken out from the incubator, and ODN2006 alone or both ODN2006 and the diluted compound were added separately to each well. The plate was incubated at 37°C in a 5% CO2 incubator for 16 h. 5. After being incubated for 16 h, the 384-well plate was removed from the incubator and centrifuged at 1000 rpm for 1 minute. The optical density value of each well at 620 nm was measured using a multifunctional microplate reader. 6. The cell inhibition rate was calculated as (1-(OD620 test group-OD620 blank group)/(OD620 positive group-OD620 blank group))×100%, and the half maximal inhibitory concentration (IC50) was calculated through curve fitting. Table 1: Activity of the compounds of the present disclosure in HEK-Blue-hTLR7/8/9 cellular assays

HEK-Blue-hTLR7 cells = target: T2, HEK-Blue-hTLR7 cells (Homo sapiens, UniProt Q9NYK1); experiment: HEK-Blue-hTLR7 cell inhibition assay; format: cell-based; conditions: R848 0.8 µM, 16 h, OD 620 nm, read-out: TLR7 IC50
T2 construct: expressed in transfected cells; host or cells: HEK-Blue-hTLR7 cells (HEK293-derived reporter line)
T2 sequence (Q9NYK1 27-1049): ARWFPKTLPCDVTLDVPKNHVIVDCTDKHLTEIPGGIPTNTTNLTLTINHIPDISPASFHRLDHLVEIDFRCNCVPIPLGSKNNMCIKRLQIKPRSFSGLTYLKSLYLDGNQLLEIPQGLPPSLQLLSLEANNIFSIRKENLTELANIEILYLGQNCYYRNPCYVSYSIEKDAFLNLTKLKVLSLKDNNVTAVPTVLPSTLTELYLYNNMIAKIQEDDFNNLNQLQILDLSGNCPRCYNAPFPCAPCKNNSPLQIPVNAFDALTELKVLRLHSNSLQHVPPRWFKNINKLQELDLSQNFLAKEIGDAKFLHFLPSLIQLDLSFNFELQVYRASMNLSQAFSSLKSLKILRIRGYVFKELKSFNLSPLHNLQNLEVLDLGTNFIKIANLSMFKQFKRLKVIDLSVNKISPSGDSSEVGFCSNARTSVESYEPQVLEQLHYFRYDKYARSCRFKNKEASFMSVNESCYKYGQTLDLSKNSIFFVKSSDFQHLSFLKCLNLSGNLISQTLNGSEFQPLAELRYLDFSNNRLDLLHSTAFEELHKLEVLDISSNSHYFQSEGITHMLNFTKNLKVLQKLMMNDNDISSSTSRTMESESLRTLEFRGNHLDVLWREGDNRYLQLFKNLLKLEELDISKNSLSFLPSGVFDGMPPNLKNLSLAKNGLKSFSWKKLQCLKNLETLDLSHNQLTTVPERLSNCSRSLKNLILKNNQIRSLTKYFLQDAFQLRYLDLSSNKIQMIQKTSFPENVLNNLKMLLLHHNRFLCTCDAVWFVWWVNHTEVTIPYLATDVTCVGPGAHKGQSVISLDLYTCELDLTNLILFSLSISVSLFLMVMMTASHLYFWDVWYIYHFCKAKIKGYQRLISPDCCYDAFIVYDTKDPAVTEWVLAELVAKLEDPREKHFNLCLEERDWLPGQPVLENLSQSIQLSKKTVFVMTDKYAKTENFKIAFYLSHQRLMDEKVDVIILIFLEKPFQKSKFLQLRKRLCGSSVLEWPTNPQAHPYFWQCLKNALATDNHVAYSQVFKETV
Procedure: as §1, §2

Row | SMILES | IC50 (HEK-Blue-hTLR8 cells) [µM] | IC50 (HEK-Blue-hTLR7 cells) [µM]
1 | CN1CCC(n2cnc([C@]34CN(c5ccc(C#N)n6ncc(F)c56)C[C@@]3(C(F)(F)F)C4)n2)CC1 [Compound 74, 3-fluoro-4-((1S,5R)-1-(1-(1-methylpiperidin-4-yl)-1H-1,2,4-triazol-3-yl)-5-(trifluoromethyl)-3-azabicyclo[3.1.0]hexan-3-yl)pyrazolo[1,5-a]pyridine-7-carbonitrile] | < 0.1 | < 0.1
2 | CN1[C@@H]2CC[C@H]1C[C@@H](c1nnc([C@]34CN(c5ccc(C(F)(F)F)c6ncccc56)C[C@@]3(C(F)(F)F)C4)o1)C2 [Compound 78, 2-((1R,3R,5S)-8-methyl-8-azabicyclo[3.2.1]octan-3-yl)-5-((1S,5R)-5-(trifluoromethyl)-3-(8-(trifluoromethyl)quinolin-5-yl)-3-azabicyclo[3.1.0]hexan-1-yl)-1,3,4-oxadiazole] | < 0.1 | < 0.1
3 | CN1CCC(Oc2nnc([C@]34CN(c5ccc(C#N)n6nccc56)C[C@@]3(C(F)(F)F)C4)o2)CC1 [Compound 89, 4-((1S,5R)-1-(5-((1-methylpiperidin-4-yl)oxy)-1,3,4-oxadiazol-2-yl)-5-(trifluoromethyl)-3-azabicyclo[3.1.0]hexan-3-yl)pyrazolo[1,5-a]pyridine-7-carbonitrile] | < 0.1 | < 0.1

Further lines, results first:

Row | IC50 (HEK-Blue-hTLR8 cells) [µM] | IC50 (HEK-Blue-hTLR7 cells) [µM] | SMILES
4 | < 0.1 | < 0.1 | CN(C)C12CCC(c3nnc([C@]45CN(c6ccc(C(F)(F)F)c7ncccc67)C[C@@]4(C(F)(F)F)C5)o3)(CC1)CC2 [Compound 82, N,N-dimethyl-4-(5-((1S,5R)-5-(trifluoromethyl)-3-(8-(trifluoromethyl)quinolin-5-yl)-3-azabicyclo[3.1.0]hexan-1-yl)-1,3,4-oxadiazol-2-yl)bicyclo[2.2.2]octan-1-amine]
5 | < 0.1 | < 0.1 | CN1CCC(c2nnc([C@]34CN(c5ccc(C(F)(F)F)c6nccnc56)C[C@@]3(C(F)(F)F)C4)o2)CC1 [Compound 88, 2-(1-methylpiperidin-4-yl)-5-((1S,5R)-5-(trifluoromethyl)-3-(8-(trifluoromethyl)quinoxalin-5-yl)-3-azabicyclo[3.1.0]hexan-1-yl)-1,3,4-oxadiazole]
